For the experiment, the system named is BJeLR. Description: Modulatory profiling: Alamar Blue viability, lethal compound cotreated with death modulator (EC50, AUC). On AUC, modulator BJ.3MA: reference of the scale not given here. On AUC, modulator BJ.ALLN: reference of the scale not given here. On AUC, modulator BJ.Boc D: reference of the scale not given here. On AUC, modulator BJ.CHX: reference of the scale not given here. On AUC, modulator BJ.Co2+: reference of the scale not given here. On AUC, modulator BJ.DPQ: reference of the scale not given here. On AUC, modulator BJ.Gd3+: reference of the scale not given here. On AUC, modulator BJ.LNAME: reference of the scale not given here. On AUC, modulator BJ.NAD+: reference of the scale not given here. On AUC, modulator BJ.NMMA: reference of the scale not given here. On AUC, modulator BJ.Nec-1: reference of the scale not given here. On AUC, modulator BJ.Pepstatin: reference of the scale not given here. On AUC, modulator BJ.TLCK: reference of the scale not given here. Also noted: AUC, modulator BJ.Gd3+ / AUC, modulator BJ.LNAME / AUC, modulator BJ.Lmin / AUC, modulator BJ.3MA / AUC, modulator BJ.ALLN / AUC, modulator BJ.Boc D / AUC, modulator BJ.CHX / AUC, modulator BJ.Co2+ / AUC, modulator BJ.Nec-1 / AUC, modulator BJ.Pepstatin / AUC, modulator BJ.TLCK / AUC, modulator BJ.atoc / AUC, modulator BJ.trolox / AUC, modulator BJ.zVAD: unit not given beside the values. The following applies: BJeLR cells, modulatory profile value (AUC); for AUC, modulator BJ.3MA: lethal compound cotreated with modulator 3MA; for AUC, modulator BJ.ALLN: lethal compound cotreated with modulator ALLN; for AUC, modulator BJ.Boc D: lethal compound cotreated with modulator Boc D; for AUC, modulator BJ.CHX: lethal compound cotreated with modulator CHX; for AUC, modulator BJ.Co2+: lethal compound cotreated with modulator Co2+; for AUC, modulator BJ.DPQ: lethal compound cotreated with modulator DPQ; for AUC, modulator BJ.Gd3+: lethal compound cotreated with modulator Gd3+; for AUC, modulator BJ.LNAME: lethal compound cotreated with modulator LNAME; for AUC, modulator BJ.Lmin/NAD+: lethal compound cotreated with modulator Lmin/NAD+; for AUC, modulator BJ.Lmin: lethal compound cotreated with modulator Lmin; for AUC, modulator BJ.NAD+: lethal compound cotreated with modulator NAD+; for AUC, modulator BJ.NMMA: lethal compound cotreated with modulator NMMA; for AUC, modulator BJ.Nec-1: lethal compound cotreated with modulator Nec-1; for AUC, modulator BJ.Pepstatin: lethal compound cotreated with modulator Pepstatin; for AUC, modulator BJ.TLCK: lethal compound cotreated with modulator TLCK; for AUC, modulator BJ.atoc: lethal compound cotreated with modulator atoc; for AUC, modulator BJ.trolox: lethal compound cotreated with modulator trolox; for AUC, modulator BJ.zVAD: lethal compound cotreated with modulator zVAD. It counts as cell-based, human. In general terms: The colour change of resazurin is a common sign of viable cells or microbes.

Structures are written as SMILES.

As to `CC(C)C[C@H](NC(=O)[C@H](Cc1ccccc1)NC(=O)c1cnccn1)B(O)O` [Bortezomib], the “AUC, modulator BJ.3MA” value is given as 0.001928; the “AUC, modulator BJ.ALLN” value is recorded as −0.1031; the “AUC, modulator BJ.Boc D” value is reported as 0.03032; the “AUC, modulator BJ.CHX” value came out at 0.2984. The “AUC, modulator BJ.Co2+” value was 0.2379; the “AUC, modulator BJ.DPQ” value was −0.007392; the “AUC, modulator BJ.Gd3+” value is −0.03227; the “AUC, modulator BJ.LNAME” value is −0.008649. For the same compound, the “AUC, modulator BJ.Lmin/NAD+” value turned out to be 0.1491; the “AUC, modulator BJ.Lmin” value is listed as 0.09993; the “AUC, modulator BJ.NAD+” value turned out to be 0.05175; the “AUC, modulator BJ.NMMA” value is reported as −0.0002968. Also, the “AUC, modulator BJ.Nec-1” value stood at 0.002293; the “AUC, modulator BJ.Pepstatin” value worked out at 0.000698; the “AUC, modulator BJ.TLCK” value is reported as 0.07108; the “AUC, modulator BJ.atoc” value came out at 0.01647. In addition, the “AUC, modulator BJ.trolox” value turned out to be 0.01237 and the “AUC, modulator BJ.zVAD” value is recorded as 0.005086.
As for `COc1ccccc1/C=C/C1(C(=O)NC2CCCC2)CC(=O)N1c1ccc(F)cc1` (stereo not drawn) [CIL1], the “AUC, modulator BJ.3MA” value is given as 0.0947; the “AUC, modulator BJ.ALLN” value is listed as −0.03319; the “AUC, modulator BJ.Boc D” value is −0.0465; the “AUC, modulator BJ.CHX” value was −0.08681. Besides, the “AUC, modulator BJ.Co2+” value came to 0.09572; the “AUC, modulator BJ.DPQ” value was −0.01655; the “AUC, modulator BJ.Gd3+” value is −0.001577; the “AUC, modulator BJ.LNAME” value is recorded as −0.02103. Besides, the “AUC, modulator BJ.Lmin/NAD+” value is −0.01947; the “AUC, modulator BJ.Lmin” value is given as −0.0142; the “AUC, modulator BJ.NAD+” value worked out at 0.03941; the “AUC, modulator BJ.NMMA” value is given as −0.02498. The “AUC, modulator BJ.Nec-1” value was 0.0816; the “AUC, modulator BJ.Pepstatin” value came out at 0.07639; the “AUC, modulator BJ.TLCK” value is 0.01375; the “AUC, modulator BJ.atoc” value turned out to be 0.05385. Besides, the “AUC, modulator BJ.trolox” value amounted to 0.08302 and the “AUC, modulator BJ.zVAD” value is given as −0.04705.
`CC1=CC(C)(C)Nc2ccc(OC(=O)c3ccco3)cc21` [CIL2]: the “AUC, modulator BJ.3MA” value turned out to be 0.06431; the “AUC, modulator BJ.ALLN” value was −0.03978; the “AUC, modulator BJ.Boc D” value is listed as −0.03808; the “AUC, modulator BJ.CHX” value was determined as 0.03999. Also, the “AUC, modulator BJ.Co2+” value was −0.1362; the “AUC, modulator BJ.DPQ” value was 0.003929; the “AUC, modulator BJ.Gd3+” value was 0.01322; the “AUC, modulator BJ.LNAME” value is −0.004423. The “AUC, modulator BJ.Lmin/NAD+” value was −0.01944; the “AUC, modulator BJ.Lmin” value came to 0.008318; the “AUC, modulator BJ.NAD+” value is given as 0.03383; the “AUC, modulator BJ.NMMA” value is −0.005234. Also, the “AUC, modulator BJ.Nec-1” value came out at 0.0318; the “AUC, modulator BJ.Pepstatin” value is 0.05923; the “AUC, modulator BJ.TLCK” value was found to be 0.06974; the “AUC, modulator BJ.atoc” value is −0.01149. In addition, the “AUC, modulator BJ.trolox” value amounted to 0.001657 and the “AUC, modulator BJ.zVAD” value is on record as −0.003959.
`CC1CC(C)(C)Nc2ccc(OC(=O)c3ccco3)cc21` (stereo not drawn) [CIL4]: the “AUC, modulator BJ.3MA” value turned out to be 0.08316; the “AUC, modulator BJ.ALLN” value is given as −0.003083; the “AUC, modulator BJ.Boc D” value was −0.01828; the “AUC, modulator BJ.CHX” value was −0.009993. In addition, the “AUC, modulator BJ.Co2+” value was −0.1747; the “AUC, modulator BJ.DPQ” value was −0.003969; the “AUC, modulator BJ.Gd3+” value is 0.05533; the “AUC, modulator BJ.LNAME” value is −0.01288. In addition, the “AUC, modulator BJ.Lmin/NAD+” value was found to be 0.08674; the “AUC, modulator BJ.Lmin” value is given as −0.002867; the “AUC, modulator BJ.NAD+” value is recorded as 0.02731; the “AUC, modulator BJ.NMMA” value was −0.01566. For the same compound, the “AUC, modulator BJ.Nec-1” value was 0.1015; the “AUC, modulator BJ.Pepstatin” value is reported as 0.08231; the “AUC, modulator BJ.TLCK” value is 0.06929; the “AUC, modulator BJ.atoc” value is on record as 0.004307. Moreover, the “AUC, modulator BJ.trolox” value is 0.008406 and the “AUC, modulator BJ.zVAD” value was 0.01242.
For the compound `COc1ccc(Nc2ccc3c(c2)=NC2(CCCCC2)[N+]=3[O-])cc1` [CIL9], the “AUC, modulator BJ.3MA” value was 0.0465; the “AUC, modulator BJ.ALLN” value is −0.1202; the “AUC, modulator BJ.Boc D” value is recorded as −0.06171; the “AUC, modulator BJ.CHX” value is given as 0.03696. Besides, the “AUC, modulator BJ.Co2+” value was −0.009162; the “AUC, modulator BJ.DPQ” value is listed as −0.01225; the “AUC, modulator BJ.Gd3+” value was −0.01038; the “AUC, modulator BJ.LNAME” value is given as 0.01336. The “AUC, modulator BJ.Lmin/NAD+” value was found to be 0.01499; the “AUC, modulator BJ.Lmin” value is on record as −0.03967; the “AUC, modulator BJ.NAD+” value worked out at 0.0007181; the “AUC, modulator BJ.NMMA” value was −0.01541. In addition, the “AUC, modulator BJ.Nec-1” value turned out to be 0.02689; the “AUC, modulator BJ.Pepstatin” value was 0.0182; the “AUC, modulator BJ.TLCK” value was −0.01752; the “AUC, modulator BJ.atoc” value worked out at 0.02754. The “AUC, modulator BJ.trolox” value is given as 0.05397 and the “AUC, modulator BJ.zVAD” value was −0.02708.
For the compound `CC(C)(C)C1CCc2c(sc(NC(=O)CN3CCNCC3)c2C(N)=O)C1` (stereo not drawn) [CIL10], the “AUC, modulator BJ.3MA” value came to 0.134; the “AUC, modulator BJ.ALLN” value is given as −0.01713; the “AUC, modulator BJ.Boc D” value is recorded as −0.05212; the “AUC, modulator BJ.CHX” value is recorded as −0.01805. In addition, the “AUC, modulator BJ.Co2+” value was found to be 0.1142; the “AUC, modulator BJ.DPQ” value is reported as −0.02695; the “AUC, modulator BJ.Gd3+” value worked out at 0.007922; the “AUC, modulator BJ.LNAME” value is reported as 0.01363. The “AUC, modulator BJ.Lmin/NAD+” value is −0.01396; the “AUC, modulator BJ.Lmin” value was −0.02341; the “AUC, modulator BJ.NAD+” value was −0.001182; the “AUC, modulator BJ.NMMA” value was 0.006192. Besides, the “AUC, modulator BJ.Nec-1” value was found to be 0.07272; the “AUC, modulator BJ.Pepstatin” value stood at 0.001044; the “AUC, modulator BJ.TLCK” value was −0.05831; the “AUC, modulator BJ.atoc” value turned out to be 0.0467. The “AUC, modulator BJ.trolox” value was 0.05527 and the “AUC, modulator BJ.zVAD” value is on record as −0.007333.
Take `O=C1C(Cl)=C(N2CCOCC2)C(=O)C(Cl)=C1N1CCOCC1` [CIL11]: the “AUC, modulator BJ.3MA” value was 0.09004; the “AUC, modulator BJ.ALLN” value came out at 0.01538; the “AUC, modulator BJ.Boc D” value is given as −0.04323; the “AUC, modulator BJ.CHX” value is given as 0.1239. In addition, the “AUC, modulator BJ.Co2+” value is reported as 0.07771; the “AUC, modulator BJ.DPQ” value is given as −0.01566; the “AUC, modulator BJ.Gd3+” value worked out at 0.02905; the “AUC, modulator BJ.LNAME” value was −0.0003217. Also, the “AUC, modulator BJ.Lmin/NAD+” value was determined as 0.01344; the “AUC, modulator BJ.Lmin” value is on record as −0.04034; the “AUC, modulator BJ.NAD+” value is −0.03919; the “AUC, modulator BJ.NMMA” value is on record as −0.00378. Further, the “AUC, modulator BJ.Nec-1” value came out at 0.02974; the “AUC, modulator BJ.Pepstatin” value is 0.04125; the “AUC, modulator BJ.TLCK” value is on record as −0.01155; the “AUC, modulator BJ.atoc” value was −0.02082. The “AUC, modulator BJ.trolox” value was −0.01782 and the “AUC, modulator BJ.zVAD” value is recorded as −0.004517.
As to `Cc1cccnc1Nc1nc(-c2ccccn2)cs1` [CIL13], the “AUC, modulator BJ.3MA” value is 0.09083; the “AUC, modulator BJ.ALLN” value was −0.03933; the “AUC, modulator BJ.Boc D” value is −0.02989; the “AUC, modulator BJ.CHX” value is −0.1264. Also, the “AUC, modulator BJ.Co2+” value is listed as 0.5287; the “AUC, modulator BJ.DPQ” value came to 0.007392; the “AUC, modulator BJ.Gd3+” value amounted to 0.04263; the “AUC, modulator BJ.LNAME” value is on record as 0.01544. Moreover, the “AUC, modulator BJ.Lmin/NAD+” value was −0.05456; the “AUC, modulator BJ.Lmin” value is on record as −0.03412; the “AUC, modulator BJ.NAD+” value amounted to 0.01378; the “AUC, modulator BJ.NMMA” value was −0.03177. Also, the “AUC, modulator BJ.Nec-1” value was determined as 0.04738; the “AUC, modulator BJ.Pepstatin” value is 0.03784; the “AUC, modulator BJ.TLCK” value was 0.3412; the “AUC, modulator BJ.atoc” value is listed as −0.005646. Moreover, the “AUC, modulator BJ.trolox” value was −0.006649 and the “AUC, modulator BJ.zVAD” value is listed as −0.004568.

For the origin of these results see US10947188B2, “Small molecule ferroptosis inducers” (THE TRUSTEES OF COLUMBIA UNIVERSITY IN THE CITY OF NEW YORK, priority 2016, dated 2021).
